Experimental data: patent US20170121315A1, “HETEROBICYCLICALLY SUBSTITUTED 4-OXOBUTANE ACID DERIVATIVES AND USE THEREOF” (priority 2014, published 2017)

Tests used:
MMP-7 = target: T1, MMP-7 (Homo sapiens, UniProt P09237); experiment: In vitro MMP-7 inhibition test; format: biochemical; settings: human MMP-7
T1 construct: purchased R&D Systems 907-MP
T1 sequence (P09237 95-267): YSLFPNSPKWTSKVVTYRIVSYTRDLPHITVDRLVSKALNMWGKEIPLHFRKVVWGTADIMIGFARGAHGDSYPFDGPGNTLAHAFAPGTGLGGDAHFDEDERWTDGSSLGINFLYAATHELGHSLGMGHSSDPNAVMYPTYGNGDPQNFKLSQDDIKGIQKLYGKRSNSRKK
Text: (§1) The MMP-mediated amidolytic cleavage of a suitable peptide substrate leads to an increase in fluorescent light here too. The signal intensity of the fluorescent light is directly proportional to the enzyme activity. The active concentration of a test compound at which half the enzyme is inhibited (50% signal intensity of the fluorescent light) is reported as the IC50 value.
(§2) Recombinant MMP-7 (from R&D Systems, 907-MP) is chemically activated in accordance with the manufacturer's instructions using APMA. 1 μl of the test compound to be analysed (as a solution in DMSO, suitable concentrations e.g. 1 nM to 30 μM) is pipetted into 24 μl of activated enzyme (final concentration e.g. 0.5 nM) in reaction buffer (50 mM Tris/HCl pH 7.5, 10 mM CaCl2, 150 mM NaCl, 0.05% Brij®-35) in a white 384-hole microtiter plate (MTP). The enzymatic reaction is started by adding the intramolecularly quenched Mca-Pro-Leu-Gly-Leu-Dpa(Dnp)-Ala-Arg-NH2 substrate (final concentration e.g. 10 μM; R&D Systems, ES-001), so as to result in a total test volume of 50 μl. The course of the MMP-7 reaction is measured by measuring the fluorescence intensity (excitation 320 nm, emission 410 nm) over a suitable period of time (e.g. over 120 min at a temperature of 32° C.).

MMP-9 = target: T2, MMP-9 (Homo sapiens, UniProt P14780); experiment: In vitro MMP-9 inhibition test; format: biochemical; settings: human MMP-9
T2 construct: purchased R&D Systems 911-MP
T2 sequence (P14780 107-707 limits assumed): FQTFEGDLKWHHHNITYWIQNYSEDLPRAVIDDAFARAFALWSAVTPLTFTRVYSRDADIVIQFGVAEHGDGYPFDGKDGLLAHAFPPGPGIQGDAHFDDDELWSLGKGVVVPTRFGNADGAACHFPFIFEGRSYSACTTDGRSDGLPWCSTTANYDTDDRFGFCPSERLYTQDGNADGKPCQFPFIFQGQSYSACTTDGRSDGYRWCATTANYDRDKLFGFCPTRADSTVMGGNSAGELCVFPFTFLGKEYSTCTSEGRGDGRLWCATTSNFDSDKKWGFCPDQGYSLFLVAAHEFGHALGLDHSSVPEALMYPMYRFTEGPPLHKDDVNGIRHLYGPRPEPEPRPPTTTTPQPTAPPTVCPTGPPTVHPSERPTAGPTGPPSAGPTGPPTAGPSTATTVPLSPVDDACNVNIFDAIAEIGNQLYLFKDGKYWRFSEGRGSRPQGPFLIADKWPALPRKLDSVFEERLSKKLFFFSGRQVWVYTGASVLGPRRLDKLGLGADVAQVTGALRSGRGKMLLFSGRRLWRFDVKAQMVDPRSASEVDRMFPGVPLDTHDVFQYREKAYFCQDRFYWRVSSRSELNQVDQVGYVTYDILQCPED
Text: as §1
as §2, with “MMP-9 (R&D” for “MMP-7 (from R&D”, “911-MP)” for “907-MP)”, “0.1” for “0.5”, “MMP-9” for “MMP-7”

MMP-14 = target: T3, MMP-14 (Homo sapiens, UniProt P50281); experiment: In vitro MMP-14 inhibition test; format: biochemical; settings: human MMP-14
T3 construct: purchased R&D Systems 918-MP
Text: as §1
Recombinant MMP-14 (R&D Systems, 918-MP) is enzymatically activated in accordance with the manufacturer's instructions using recombinant furin (R&D Systems, 1503-SE). 1 μl of the test compound to be analysed (as a solution in DMSO, suitable concentrations e.g. 1 nM to 30 μM) is pipetted into 24 μl of activated enzyme (final concentration e.g. 0.5 nM) in reaction buffer (50 mM Tris/HCl pH 7.5, 10 mM CaCl2, 150 mM NaCl, 0.05% Brij®-35) in a white 384-hole microtiter plate (MTP). The enzymatic reaction is started by adding the intramolecularly quenched Mca-Lys-Pro-Leu-Gly-Leu-Dpa(Dnp)-Ala-Arg-NH2 substrate (final concentration e.g. 5 μM; R&D Systems, ES-010), so as to result in a total test volume of 50 μl. The course of the MMP-14 reaction is measured by measuring the fluorescence intensity (excitation 320 nm, emission 410 nm) over a suitable period of time (e.g. over 120 min at a temperature of 32° C.).

rat hepatocytes = experiment: Hepatocyte assay for determination of metabolic stability; format: in vitro ADME; settings: after incubation with rat hepatocytes
Method: The metabolic stability of test compounds towards hepatocytes is determined by incubating the compounds at low concentrations (preferably below or around 1 μM) and at low cell counts (preferably at 1*10^6 cells/ml) in order to ensure maximum linearity of kinetic conditions in the experiment. Seven samples from the incubation solution are taken for the LC-MS analysis within a fixed time pattern, in order to determine the half-life (i.e. the degradation) of the particular compound. This half-life is used to calculate various “Clearance” parameters (CL) and “Fmax” values (see below).
The CL and Fmax values are a measure of the phase 1 and phase 2 metabolism of the compounds in the hepatocytes. In order to minimize the influence of the organic solvent on the enzymes in the incubation batches, the concentration thereof is generally limited to 1% (acetonitrile) or 0.1% (DMSO).
For all species and breeds, a hepatocyte cell count in the liver of 1.1*10^8 cells/g of liver is expected.

## O=C(CC(CCn1nnc2ccc(C(F)(F)F)cc2c1=O)C(=O)O)c1noc2cc(OCC3CCOCC3)ccc12 (racemic) [Example 155, (+/−)-4-Oxo-2-{2-[4-oxo-6-(trifluoromethyl)-1,2,3-benzotriazin-3(4H)-yl]ethyl}-4-[6-(tetrahydro-2H-pyran-4-ylmethoxy)-1,2-benzoxazol-3-yl]butanoic acid]
MMP-7
  IC50: 24 µM
MMP-9
  IC50: 2.8 µM
MMP-14
  IC50: > 40 µM
Rat hepatocytes
  CLblood (calculated blood clearance, well-stirred): 20.2 mL/min/kg
  Fmax (maximum possible bioavailability after oral administration, well-stirred): 71.1%

## NC(=O)c1cccc(COc2ccc3oc(C(=O)CC(CCn4nnc5ccccc5c4=O)C(=O)O)cc3c2)c1 (single isomer, unassigned; (+)) [Example 34, (+)-4-{5-[(3-Carbamoylbenzyl)oxy]-1-benzofur-2-yl}-4-oxo-2-[2-(4-oxo-1,2,3-benzotriazin-3(4H)-yl)ethyl]butanoic acid]
MMP-7
  IC50: 25 µM
MMP-9
  IC50: 38 µM
MMP-14
  IC50: 7.9 µM

## O=C(CC(CCn1nnc2ccccc2c1=O)C(=O)O)c1cc2cc(OCc3ccccc3)ccc2o1 (single isomer, unassigned; (+)) [Example 30, (+)-4-[5-(Benzyloxy)-1-benzofur-2-yl]-4-oxo-2-[2-(4-oxo-1,2,3-benzotriazin-3(4H)-yl)ethyl]butanoic acid]
MMP-7
  IC50: > 40 µM
MMP-9
  IC50: 27 µM
MMP-14
  IC50: 31 µM

## O=C(CC(CCn1nnc2ccccc2c1=O)C(=O)O)c1cc2cc(OCc3cccc(Cl)c3)ccc2o1 (racemic) [Example 50, (+/−)-4-{5-[(3-Chlorobenzyl)oxy]-1-benzofur-2-yl}-4-oxo-2-[2-(4-oxo-1,2,3-benzotriazin-3(4H)-yl)ethyl]butanoic acid]
MMP-7
  IC50: > 40 µM
MMP-9
  IC50: 26 µM
MMP-14
  IC50: > 40 µM

## O=C(CC(CCn1nnc2ccccc2c1=O)C(=O)O)c1coc2cc(OCC3CCCCC3)ccc12 (single isomer, unassigned; (+)) [Example 82, (+)-4-[6-(Cyclohexylmethoxy)-1-benzofur-3-yl]-4-oxo-2-[2-(4-oxo-1,2,3-benzotriazin-3(4H)-yl)ethyl]butanoic acid]
MMP-7
  IC50: > 40 µM
MMP-9
  IC50: 0.094 µM
MMP-14
  IC50: 2.5 µM

## CCCCCCOc1ccc2c(C(=O)CC(CCn3nnc4ccccc4c3=O)C(=O)O)coc2c1 (single isomer, unassigned; (+)) [Example 100, (+)-4-[6-(Hexyloxy)-1-benzofur-3-yl]-4-oxo-2-[2-(4-oxo-1,2,3-benzotriazin-3(4H)-yl)ethyl]butanoic acid]
MMP-7
  IC50: > 40 µM
MMP-9
  IC50: 0.074 µM
MMP-14
  IC50: 4 µM

## CCCCCOc1ccc2c(C(=O)CC(CCn3nnc4ccccc4c3=O)C(=O)O)coc2c1 (racemic) [Example 89, (+/−)-4-Oxo-2-[2-(4-oxo-1,2,3-benzotriazin-3(4H)-yl)ethyl]-4-[6-(pentyloxy)-1-benzofur-3-yl]butanoic acid]
MMP-7
  IC50: > 40 µM
MMP-9
  IC50: 0.23 µM
MMP-14
  IC50: 13 µM

## O=C(CC(CCn1nnc2ccccc2c1=O)C(=O)O)c1cc2cc(OCCC3CCCC3)ccc2o1 (racemic) [Example 7, (+/−)-4-[5-(2-Cyclopentylethoxy)-1-benzofur-2-yl]-4-oxo-2-[2-(4-oxo-1,2,3-benzotriazin-3(4H)-yl)ethyl]butanoic acid]
MMP-7
  IC50: > 40 µM
MMP-9
  IC50: 5 µM
MMP-14
  IC50: > 40 µM

## O=C(CC(CCn1nnc2ccccc2c1=O)C(=O)O)c1cc2ccc(OCCc3ccccc3)cc2s1 (racemic) [Example 114, (+/−)-4-Oxo-2-[2-(4-oxo-1,2,3-benzotriazin-3(4H)-yl)ethyl]-4-[6-(2-phenylethoxy)-1-benzothiophen-2-yl]butanoic acid]
MMP-7
  IC50: 5.3 µM
MMP-9
  IC50: 0.24 µM
MMP-14
  IC50: 2.1 µM

## O=C(CC(CCn1nnc2ccccc2c1=O)C(=O)O)c1cc2cc(OCCc3ccccc3)ccc2o1 (single isomer, unassigned; (+)) [Example 21, (+)-4-Oxo-2-[2-(4-oxo-1,2,3-benzotriazin-3(4H)-yl)ethyl]-4-[5-(2-phenylethoxy)-1-benzofur-2-yl]butanoic acid]
MMP-7
  IC50: > 40 µM
MMP-9
  IC50: 5.6 µM
MMP-14
  IC50: 30 µM

## O=C(CC(CCn1nnc2ccccc2c1=O)C(=O)O)c1noc2cc(OCc3cccnc3)ccc12 (racemic) [Example 148, (+/−)-4-Oxo-2-[2-(4-oxo-1,2,3-benzotriazin-3(4H)-yl)ethyl]-4-[6-(pyridin-3-ylmethoxy)-1,2-benzoxazol-3-yl]butanoic acid]
MMP-7
  IC50: > 40 µM
MMP-9
  IC50: 0.91 µM
MMP-14
  IC50: 8.5 µM

## CCCCCCCOc1ccc2c(C(=O)CC(CCn3nnc4ccccc4c3=O)C(=O)O)coc2c1 (racemic) [Example 101, (+/−)-4-[6-(Heptyloxy)-1-benzofur-3-yl]-4-oxo-2-[2-(4-oxo-1,2,3-benzotriazin-3(4H)-yl)ethyl]butanoic acid]
MMP-7
  IC50: > 40 µM
MMP-9
  IC50: 0.42 µM
MMP-14
  IC50: > 40 µM

## O=C(CC(CCn1nnc2ccccc2c1=O)C(=O)O)c1noc2cc(OCC3CC3)ccc12 (racemic) [Example 150, (+/−)-4-[6-(Cyclopropylmethoxy)-1,2-benzoxazol-3-yl]-4-oxo-2-[2-(4-oxo-1,2,3-benzotriazin-3(4H)-yl)ethyl]butanoic acid]
MMP-7
  IC50: 29 µM
MMP-9
  IC50: 0.65 µM
MMP-14
  IC50: 0.9 µM

## O=C(CC(CCn1nnc2ccccc2c1=O)C(=O)O)c1coc2cc(OCCC3CCCC3)ccc12 (racemic) [Example 75, (+/−)-4-[6-(2-Cyclopentylethoxy)-1-benzofur-3-yl]-4-oxo-2-[2-(4-oxo-1,2,3-benzotriazin-3(4H)-yl)ethyl]butanoic acid]
MMP-7
  IC50: > 40 µM
MMP-9
  IC50: 0.45 µM
MMP-14
  IC50: 6.5 µM

## CCCCCCCOc1ccc2oc(C(=O)CC(CCn3nnc4ccccc4c3=O)C(=O)O)cc2c1 (racemic) [Example 31, (+/−)-4-[5-(Heptyloxy)-1-benzofur-2-yl]-4-oxo-2-[2-(4-oxo-1,2,3-benzotriazin-3(4H)-yl)ethyl]butanoic acid]
MMP-7
  IC50: > 40 µM
MMP-9
  IC50: 9.7 µM
MMP-14
  IC50: > 40 µM

## O=C(CC(CCn1nnc2ccccc2c1=O)C(=O)O)c1cc2cc(OCCCc3ccccc3)ccc2o1 (racemic) [Example 37, (+/−)-4-Oxo-2-[2-(4-oxo-1,2,3-benzotriazin-3(4H)-yl)ethyl]-4-[5-(3-phenylpropoxy)-1-benzofur-2-yl]butanoic acid]
MMP-7
  IC50: > 40 µM
MMP-9
  IC50: 17 µM
MMP-14
  IC50: > 40 µM

## CCCCCOc1ccc2c(C(=O)CC(CCn3nnc4ccccc4c3=O)C(=O)O)coc2c1 (single isomer, unassigned) [Example 91, 4-Oxo-2-[2-(4-oxo-1,2,3-benzotriazin-3(4H)-yl)ethyl]-4-[6-(pentyloxy)-1-benzofur-3-yl]butanoic acid]
MMP-7
  IC50: > 40 µM
MMP-9
  IC50: 0.041 µM
MMP-14
  IC50: 4 µM
